The values below come from patent US20240174727A1, “LONG-ACTING NATRIURETIC PEPTIDES AND USES THEREOF” (Eli Lilly and Company, priority 2022, published 2024).

The target in the assay is T1, human NPRA (Homo sapiens, UniProt P16066).
T1 construct: Full-Length cDNA Cloning and Generation of Cell Lines Overexpressing Natriuretic Peptide Receptors (NPRs); expressed in transfected cells; host or cells: Jump-in T-Rex HEK293 cells, pJTI R4 CMV-TO MCS pA vector, tetracycline induction
T1 sequence (P16066 33-1061): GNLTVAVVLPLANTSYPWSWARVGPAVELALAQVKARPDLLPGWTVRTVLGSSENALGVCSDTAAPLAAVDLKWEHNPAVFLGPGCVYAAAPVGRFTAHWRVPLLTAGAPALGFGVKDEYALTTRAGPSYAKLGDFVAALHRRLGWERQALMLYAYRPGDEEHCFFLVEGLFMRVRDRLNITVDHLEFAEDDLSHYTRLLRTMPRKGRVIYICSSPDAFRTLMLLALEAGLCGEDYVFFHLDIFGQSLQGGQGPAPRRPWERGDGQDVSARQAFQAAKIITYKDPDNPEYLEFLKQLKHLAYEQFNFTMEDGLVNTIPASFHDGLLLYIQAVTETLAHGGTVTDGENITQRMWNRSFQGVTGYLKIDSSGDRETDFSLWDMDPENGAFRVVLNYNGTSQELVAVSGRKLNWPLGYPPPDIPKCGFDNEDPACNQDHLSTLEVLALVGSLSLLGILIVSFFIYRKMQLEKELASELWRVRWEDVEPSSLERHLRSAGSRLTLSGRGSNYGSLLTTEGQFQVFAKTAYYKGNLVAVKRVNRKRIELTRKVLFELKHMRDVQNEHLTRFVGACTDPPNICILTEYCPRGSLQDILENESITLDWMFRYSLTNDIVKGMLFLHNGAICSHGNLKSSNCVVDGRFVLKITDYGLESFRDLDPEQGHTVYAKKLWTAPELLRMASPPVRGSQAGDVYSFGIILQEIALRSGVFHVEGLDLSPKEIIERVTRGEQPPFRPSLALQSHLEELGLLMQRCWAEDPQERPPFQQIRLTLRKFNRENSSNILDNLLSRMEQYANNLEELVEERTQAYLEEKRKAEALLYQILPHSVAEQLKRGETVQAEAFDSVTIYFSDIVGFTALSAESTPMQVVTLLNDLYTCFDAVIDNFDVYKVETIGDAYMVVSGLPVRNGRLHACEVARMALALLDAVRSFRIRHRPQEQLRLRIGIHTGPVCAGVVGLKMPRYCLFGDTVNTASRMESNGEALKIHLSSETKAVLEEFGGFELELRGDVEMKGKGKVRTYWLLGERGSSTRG
Description: Human NPRA cGMP activity assay (HTRF) in HEK293 cells overexpressing NPRA. The assay is classed as cell-based. How it is done: All sequences were verified by full-length sequencing performed by ACGT DNA Sequencing Services (Wheeling, IL). The target cDNA was cloned into pJTI R4 CMV-TO MCS pA vector and then co-transfected with pJT1R4 Int vector into Jump-in™ T-Rex™ HEK293 cells for mammalian inducible expression using Jump-in™ T-Rex™ HEK293 kit and Lipofectamine LTX and Plus Reagent following manufacturer's protocols, as briefly described below.
Jump-in™ T-Rex™ HEK293 cells were plated in a BioCOAT® poly-D-lysine coated 6-well plate (Becton Dickinson, cat no. 354413) at 1 million cells/well in 2 mL culture medium and incubated for 18 h at 37° C. and 5% CO2 to 50-70% confluence. A cDNA mix was made in a 50 mL tube by adding 1.5 μg target cDNA, 1.5 μg pJT1R4 Int vector, 3 μL Plus Reagent, and 300 μL Opti-MEM I sequentially into the tube. A reagent mix was made in a separate 50 mL tube by adding 7.5 μL Lipofectamine LTX into 300 μL Opti-MEM I. The mixtures were incubated for 5 min at room temperature. The cDNA mix was then transferred into the reagent mix, mixed well, and incubated for additional 30 min at room temperature. A 500 μL of cDNA/Lipofectamine complex was then transferred to the wells of the cell plate in which the culture medium was changed to 2 mL of transfection medium containing DMEM with 4.5 g/L D-glucose supplemented with 10% FBS-HI and 20 mM HEPES. Transfected cells were cultured for 48 h in an incubator at 37° C. and 5% CO2. A subclone or pool from each overexpressing cell line was maintained in culture medium with the addition of 2 mg/mL G418 sulfate for the clone selection based on its built-in resistance to G418 sulfate for at least 3 weeks with medium changed every 2-3 days.
NPRs were overexpressed in T-Rex™ HEK293 cells following the induction with 300 ng/mL tetracycline in culture medium for 48 h. Induced cell lines in an exponential growth phase were treated with 0.05% trypsin-EDTA for a few seconds at room temperature, harvested in cell medium containing FBS to neutralize the trypsin, counted, and cryopreserved at the density of 2 million cells/mL in cell preservation solution containing FBS-HI with 5% DMSO. Cryopreserved cells were stored at −80° C. for a few days prior to transferring to a liquid nitrogen tank. Induced cell lines were then used for suspension assays to measure the activity of polypeptides to stimulate cGMP production in cGMP assays or for the preparation of cell membranes to measure the binding activity of polypeptides in competitive radioligand binding assays, as described below.
Test polypeptides were added starting at 10 μM concentration and at 10-fold decreasing concentrations to obtain 8-point concentration-response curves (i.e., 10 μM to 1 pM). The quantity of cGMP generated was detected using HTRF® technology and normalized to maximum amount produced by 100 nM amidated rat ANP and the minimum amount produced by assay buffer. Detailed steps are outlined below.
Stock solutions of test polypeptides (2 mM) dissolved in DMSO were first diluted 100-fold in assay buffer containing HBSS with Ca^2+ and Mg^2+, 5 mM HEPES, 0.5 mM IBMX, and 0.1% BSA or 0.1% casein (pH 7.4). The polypeptides were further serially diluted in 1:10 dilution steps in assay buffer containing 0.1% BSA or 0.1% casein to generate 8-point 2× working stock solutions ranging from 20 μM to […].
A 10 μL cell suspension containing 4000 cells was plated in Costar® half-area white opaque 96-well plates (Corning, cat no. 3693). Then 10 μL of assay buffer (basal activity), 200 nM of amidated rat ANP (maximum activity) or 2× working stock solutions of test polypeptides were transferred into the plate. Final concentration of DMSO in each well was 0.5%. The plate was shaken for 15 sec and then incubated for 40 min at room temperature.
The cGMP generated was measured using cGMP kit following the manufacturer's directions, as described below.
(TR-FRET usually uses a lanthanide donor and a delayed reading to cut background.)

The mark [1] stands for this setting: assay buffer with 0.1% BSA, read-out: cGMP Assay (EC50, pM) w/BSA hNPRA.
[2] abbreviates: assay buffer with 0.1% casein, read-out: cGMP Assay (EC50, pM) w/Casein hNPRA.

Read-outs that look alike come from different tables or passages of the source. Numbered stars: 1 amine (or outer) side, 2 acyl side, 3 side chain; on linkers, the order of the positions; unused ones are H or OH. Bridge positions count the residues as written; N and C are the ends. Square brackets hold non-standard residues; d marks the D form. Peptide text beside a SMILES is read from it. * marks the point of attachment. PEG24 = NCCOCCOCCOCCOCCOCCOCCOCCOCCOCCOCCOCCOCCOCCOCCOCCOCCOCCOCCOCCOCCOCCOCCOCCOCCC(=O)O; C20 diacid = O=C(O)CCCCCCCCCCCCCCCCCCC(=O)*; γGlu = O=C(O)[C@H](CCC(=O)[*:2])N[*:1]; 4Pal = N[C@@H](Cc1ccncc1)C(=O)O; Aib = CC(C)(N)C(=O)O; CH2 = C([*:1])[*:2]

Consider `CC[C@H](C)[C@@H]1NC(=O)[C@H](CCCNC(=N)N)NC(=O)[C@H](CC(=O)O)NC(=O)[C@H]([C@@H](C)CC)NC(=O)[C@H](CCCNC(=N)N)NC(=O)CNC(=O)CNC(=O)[C@H](Cc2ccccc2)NC(=O)[C@@H](NC(=O)[C@H](CO)NC(=O)[C@H](CO)NC(=O)[C@H](CCCNC(=N)N)NC(=O)[C@H](CCCNC(=N)N)NC(=O)[C@H](CC(C)C)NC(=O)[C@H](CO)NC(=O)CNC(=O)[C@H](CCCCN)NC(=O)[C@H](CCC(=O)O)NC(=O)[C@H](CCCCN)NC(=O)[C@H](CCC(=O)O)NC(=O)[C@H](CCCCN)NC(=O)[C@H](CCC(=O)O)NC(=O)CC[C@H](NC(=O)CCCCCCCCCCCCCCCCCCC(=O)O)C(=O)O)CSSC[C@@H](C(=O)N[C@@H](CC(N)=O)C(=O)N[C@@H](CO)C(=O)N[C@@H](Cc2ccccc2)C(=O)N[C@@H](CCCNC(=N)N)C(=O)N[C@@H](Cc2ccncc2)C(N)=O)NC(=O)CNC(=O)[C@H](CC(C)C)NC(=O)CNC(=O)[C@H](CO)NC(=O)[C@H](CCC(N)=O)NC(=O)[C@H](C)NC(=O)CNC1=O` [Example 9] ({C20 diacid-γGlu}-EKEKEKGSLRRSSCFGGRIDRIGAQSGLGCNSFR[4Pal]-NH2; disulfide 14-30), for which the EC50 under setting [1] is 101000 pM.

Turning to “{C20 diacid-γGlu}-EKEKEKG[PEG24]S[4Pal]RRSSCFGGRIDRIGHQSGLGCPSFRHGGPPS[Aib]KPPPK-NH2 (linker 15-31 via CH2) [Example 84]”, the EC50 under setting [2] amounted to 1010 pM.

As for `CC[C@H](C)[C@@H]1NC(=O)[C@H](CCCNC(=N)N)NC(=O)[C@H](CC(=O)O)NC(=O)[C@H]([C@@H](C)CC)NC(=O)[C@H](CCCNC(=N)N)NC(=O)[C@H](CCCCN)NC(=O)CNC(=O)[C@H](Cc2ccccc2)NC(=O)[C@@H](NC(=O)[C@H](CO)NC(=O)[C@H](CO)NC(=O)[C@H](CCCNC(=N)N)NC(=O)[C@@H]2CCCN2C(=O)[C@H](CCCCN)NC(=O)[C@H](CCC(=O)O)NC(=O)CNC(=O)[C@H](CCCCN)NC(=O)[C@H](CCC(=O)O)NC(=O)[C@H](CCCCN)NC(=O)[C@H](CCC(=O)O)NC(=O)[C@H](CCCCN)NC(=O)[C@H](CCC(=O)O)NC(=O)CC[C@H](NC(=O)CCCCCCCCCCCCCCCCCCC(=O)O)C(=O)O)CSCSC[C@@H](C(=O)N2CCC[C@H]2C(=O)N[C@@H](CO)C(=O)N[C@@H](Cc2ccccc2)C(=O)N[C@@H](CCCNC(=N)N)C(=O)N[C@@H](Cc2c[nH]cn2)C(=O)NCC(=O)N[C@@H](CO)C(=O)N2CCC[C@H]2C(=O)N[C@@H](CO)C(=O)N[C@@H](CO)C(=O)NCC(=O)N[C@@H](C)C(=O)N2CCC[C@H]2C(=O)N2CCC[C@H]2C(=O)N2CCC[C@H]2C(=O)N[C@@H](CO)C(N)=O)NC(=O)CNC(=O)[C@H](CC(C)C)NC(=O)CNC(=O)[C@H](CO)NC(=O)[C@H](Cc2ccc(O)cc2)NC(=O)[C@H](CCCN)NC(=O)CNC1=O` [Example 135], the EC50 runs as follows: (cGMP Assay (EC50, pM) w/BSA hNPRA, assay buffer with 0.1% BSA) 104000 pM; (cGMP Assay (EC50, pM) w/Casein hNPRA, assay buffer with 0.1% casein) 497 pM.

Turning to “{C20 diacid-γGlu}-EKEKEKGS[4Pal]RRSSCFGGRIDRIGHQSGLGCPSFRHGGPPS[Aib]KPPPK-NH2 (linker 14-30 via CH2) [Example 68]”, the EC50 under setting [1] came to 96800 pM.

`CC[C@H](C)[C@@H]1NC(=O)[C@H](CCCNC(=N)N)NC(=O)[C@H](CC(=O)O)NC(=O)[C@H]([C@@H](C)CC)NC(=O)[C@H](CCCNC(=N)N)NC(=O)CNC(=O)CNC(=O)[C@H](Cc2ccccc2)NC(=O)[C@@H](NC(=O)[C@H](CO)NC(=O)[C@H](CO)NC(=O)[C@H](CCCNC(=N)N)NC(=O)[C@H](CCCNC(=N)N)NC(=O)[C@H](Cc2ccncc2)NC(=O)[C@H](CO)NC(=O)CNC(=O)[C@H](CCCCN)NC(=O)[C@H](CCC(=O)O)NC(=O)[C@H](CCCCN)NC(=O)[C@H](CCC(=O)O)NC(=O)[C@H](CCCCN)NC(=O)[C@H](CCC(=O)O)NC(=O)CC[C@H](NC(=O)CCCCCCCCCCCCCCCCCCC(=O)O)C(=O)O)CSSC[C@@H](C(=O)N[C@@H](CC(N)=O)C(=O)N[C@@H](CO)C(=O)N[C@@H](Cc2ccccc2)C(=O)N[C@@H](CCCNC(=N)N)C(=O)N[C@@H](Cc2ccncc2)C(N)=O)NC(=O)CNC(=O)[C@H](CC(C)C)NC(=O)CNC(=O)[C@H](CO)NC(=O)[C@H](CCC(N)=O)NC(=O)[C@H](C)NC(=O)CNC1=O` [Example 15] ({C20 diacid-γGlu}-EKEKEKGS[4Pal]RRSSCFGGRIDRIGAQSGLGCNSFR[4Pal]-NH2; disulfide 14-30): under setting [2], the EC50 is 912 pM.

`CC[C@H](C)[C@@H]1NC(=O)[C@H](CCCNC(=N)N)NC(=O)[C@H](CC(=O)O)NC(=O)[C@H]([C@@H](C)CC)NC(=O)[C@H](CCCNC(=N)N)NC(=O)CNC(=O)CNC(=O)[C@H](Cc2ccccc2)NC(=O)[C@@H](NC(=O)[C@H](CO)NC(=O)[C@H](CO)NC(=O)[C@H](CCCNC(=N)N)NC(=O)[C@H](CCCNC(=N)N)NC(=O)[C@H](Cc2c[nH]cn2)NC(=O)[C@H](CO)NC(=O)CNC(=O)[C@H](CCCCN)NC(=O)[C@H](CCC(=O)O)NC(=O)[C@H](CCCCN)NC(=O)[C@H](CCC(=O)O)NC(=O)[C@H](CCCCN)NC(=O)[C@H](CCC(=O)O)NC(=O)CC[C@H](NC(=O)CCCCCCCCCCCCCCCCCCC(=O)O)C(=O)O)CSSC[C@@H](C(=O)N2CCC[C@H]2C(=O)N[C@@H](CO)C(=O)N[C@@H](Cc2ccccc2)C(=O)N[C@@H](CCCNC(=N)N)C(=O)N[C@@H](Cc2c[nH]cn2)C(N)=O)NC(=O)CNC(=O)[C@H](CC(C)C)NC(=O)CNC(=O)[C@H](CO)NC(=O)[C@H](CCC(N)=O)NC(=O)[C@H](C)NC(=O)CNC1=O` [Example 18] ({C20 diacid-γGlu}-EKEKEKGSHRRSSCFGGRIDRIGAQSGLGCPSFRH-NH2; disulfide 14-30): the EC50 under setting [2] was 460 pM.
